Results on 3 molecules are retold here after publication PMC9136259 (Food Chemistry: X, 2022).

Experiment [1] addresses T1, xanthine oxidase (XOD, from bovine milk) (Bos taurus, UniProt P80457). In words: intrinsic fluorescence quenching. The class given is binding. The conditions noted are these: 0.2 M PBS pH 7.5; 298, 304 and 310 K; static quenching.
For experiment [2], the target named is T1, xanthine oxidase (XOD, from bovine milk). Kind of experiment: xanthine oxidation, absorbance at […] nm, microplate. The class given is biochemical.

Molecules are shown by their SMILES.

T1 sequence (P80457 2-1332): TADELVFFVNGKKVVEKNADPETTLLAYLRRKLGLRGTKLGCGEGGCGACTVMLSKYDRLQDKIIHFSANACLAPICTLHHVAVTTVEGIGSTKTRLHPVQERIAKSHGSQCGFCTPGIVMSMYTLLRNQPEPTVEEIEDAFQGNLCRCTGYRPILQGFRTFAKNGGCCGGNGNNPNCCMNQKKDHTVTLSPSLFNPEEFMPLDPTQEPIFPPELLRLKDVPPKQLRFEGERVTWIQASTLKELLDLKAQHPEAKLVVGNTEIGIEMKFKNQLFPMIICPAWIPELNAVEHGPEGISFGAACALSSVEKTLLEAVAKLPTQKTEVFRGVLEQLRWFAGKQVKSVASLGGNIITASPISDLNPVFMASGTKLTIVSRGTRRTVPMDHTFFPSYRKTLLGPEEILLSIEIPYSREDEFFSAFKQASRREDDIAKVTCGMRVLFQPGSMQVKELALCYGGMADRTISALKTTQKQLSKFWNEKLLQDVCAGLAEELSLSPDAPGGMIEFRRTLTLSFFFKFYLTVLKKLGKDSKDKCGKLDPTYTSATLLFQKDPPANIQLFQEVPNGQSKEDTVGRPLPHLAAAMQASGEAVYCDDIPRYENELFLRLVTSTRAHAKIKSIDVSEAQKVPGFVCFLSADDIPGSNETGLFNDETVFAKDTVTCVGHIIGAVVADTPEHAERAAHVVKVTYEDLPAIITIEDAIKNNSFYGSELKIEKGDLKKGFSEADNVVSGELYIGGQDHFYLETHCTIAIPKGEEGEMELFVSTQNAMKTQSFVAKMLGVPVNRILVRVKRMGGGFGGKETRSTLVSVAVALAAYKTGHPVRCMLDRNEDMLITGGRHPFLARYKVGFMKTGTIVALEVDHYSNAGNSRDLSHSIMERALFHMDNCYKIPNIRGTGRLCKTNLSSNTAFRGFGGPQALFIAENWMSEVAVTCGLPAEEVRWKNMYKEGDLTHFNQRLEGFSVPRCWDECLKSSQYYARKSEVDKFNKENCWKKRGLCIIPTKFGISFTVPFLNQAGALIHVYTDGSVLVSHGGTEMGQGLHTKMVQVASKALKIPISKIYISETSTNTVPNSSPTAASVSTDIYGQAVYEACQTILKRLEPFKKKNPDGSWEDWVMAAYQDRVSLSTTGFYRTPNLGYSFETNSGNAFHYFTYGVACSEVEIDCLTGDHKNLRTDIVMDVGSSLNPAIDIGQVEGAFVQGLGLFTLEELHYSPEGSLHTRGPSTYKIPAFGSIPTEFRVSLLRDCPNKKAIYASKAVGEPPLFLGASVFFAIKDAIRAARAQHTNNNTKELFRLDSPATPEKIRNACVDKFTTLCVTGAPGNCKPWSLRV

As for `CC(=O)c1c(O)cccc1O` [2,6-Dihydroxyacetophenone], the “intrinsic fluorescence quenching (Stern-Volmer), excitation 280 nm” value (from here on “intrinsic fluorescence quenching”) in experiment [1] is “fluorescence quenching mechanism of DHAP, 4-HPEA and HBA for XOD were a single type”. This molecule also registered an IC50 in experiment [2] of 1240 ± 20 µM.
For the molecule `O=Cc1ccc(O)cc1` [4-Hydroxybenzaldehyde], the “intrinsic fluorescence quenching” value in experiment [1] is “fluorescence quenching mechanism of DHAP, 4-HPEA and HBA for XOD were a single type”. Also, in experiment [2], 2.67 ± 0.9 µM corresponded to half-maximal inhibition (IC50).
In the case of `OCCc1ccc(O)cc1` [4-Hydroxyphenethyl alcohol], in experiment [1], the “intrinsic fluorescence quenching” value is “fluorescence quenching mechanism of DHAP, 4-HPEA and HBA for XOD were a single type”. In experiment [2], the half-inhibitory concentration (IC50) worked out at 24500 ± 800 µM.
